The source made the active and inactive calls. No cut-off for these calls is given here.
Experiments:
[1] = Oral bioavailability in rat at 10 mg/kg administered as 1% carboxymethylcellulose 0.5% Tween 80 formulation by LC-MS analysis; type: ADME, organism-based; conditions: in vivo
[2] = Oral bioavailability in dog at 10 mg/kg administered as 0.5% carboxymethylcellulose 0.02% sodium dodecyl sulfate formulation by LC-MS analysis; type: ADME, organism-based, Canis lupus familiaris; conditions: in vivo
[3] = tested on: CML-T1; assay: Inhibition of cell proliferation in human CML-T1 cells upto 10 umol/L incubated for 72 hrs by DAPI staining based analysis; type: functional; conditions: dose <= 10.0 µmol/L
[4] = tested on: MCF7; assay: Inhibition of cell proliferation in human MCF7 cells upto 10 umol/L incubated for 72 hrs by DAPI staining based analysis; type: functional; conditions: dose <= 10.0 µmol/L
[5] = tested on: HEL 92.1.7; assay: Inhibition of cell proliferation in human HEL 92.1.7 cells upto 10 umol/L incubated for 72 hrs by DAPI staining based analysis; type: functional; conditions: dose <= 10.0 µmol/L
[6] = tested on: CAL-62; assay: Inhibition of cell proliferation in human CAL-62 cells upto 10 umol/L incubated for 72 hrs by DAPI staining based analysis; type: functional; conditions: dose <= 10.0 µmol/L
[7] = tested on: UMUC3; assay: Inhibition of cell proliferation in human UMUC3 cells upto 10 umol/L incubated for 72 hrs by DAPI staining based analysis; type: functional; conditions: dose <= 10.0 µmol/L
[8] = target: Tyrosine-protein kinase TXK (Homo sapiens) (UniProt P42681); assay: Inhibition of Txk (unknown origin) at 1 uM in presence of ATP relative to control
[9] = Cmin in adult patient with recurrent LMNA-NTRK1 rearranged colorectal cancer at 100 mg administered twice a day as powder-in-capsule or liquid formulation for 22 day and measured 10 hrs post dose by LC-MS/MS analysis; type: ADME; conditions: human, in vivo, po, read-out: Cmin
[10] = target: Tyrosine-protein kinase Blk (Homo sapiens) (UniProt P51451); assay: Inhibition of BLK (unknown origin) at 1 uM in presence of ATP relative to control; values are per cent of control
[11] = target: Tyrosine-protein kinase Lck (Homo sapiens) (UniProt P06239); assay: Inhibition of Lck (unknown origin) at 1 uM in presence of ATP relative to control; values are per cent of control
[12] = target: RAC-alpha serine/threonine-protein kinase (Homo sapiens) (UniProt P31749); assay: Inhibition of AKT1 (unknown origin) at 1 uM in presence of ATP relative to control; values are per cent of control
[13] = target: G protein-coupled receptor kinase 5 (Homo sapiens) (UniProt P34947); assay: Inhibition of GRK5 (unknown origin) at 1 uM in presence of ATP relative to control; values are per cent of control
[14] = target: Dual specificity protein kinase CLK2 (Homo sapiens) (UniProt P49760); assay: Inhibition of CLK2 (unknown origin) at 1 uM in presence of ATP relative to control; values are per cent of control
[15] = target: Mitogen-activated protein kinase 3 (Homo sapiens) (UniProt P27361); assay: Inhibition of ERK1 (unknown origin) at 1 uM in presence of ATP relative to control; values are per cent of control
[16] = target: Mitogen-activated protein kinase 1 (Homo sapiens) (UniProt P28482); assay: Inhibition of ERK2 (unknown origin) at 1 uM in presence of ATP relative to control; values are per cent of control
[17] = target: Dual specificity mitogen-activated protein kinase kinase 7 (Homo sapiens) (UniProt O14733); assay: Inhibition of MKK7 (unknown origin) at 1 uM in presence of ATP relative to control; values are per cent of control
[18] = target: Serine/threonine-protein kinase 24 (Homo sapiens) (UniProt Q9Y6E0); assay: Inhibition of MST3 (unknown origin) at 1 uM in presence of ATP relative to control; values are per cent of control
[19] = target: Muscle, skeletal receptor tyrosine-protein kinase (Homo sapiens) (UniProt O15146); assay: Inhibition of MUSK (unknown origin) at 1 uM in presence of ATP relative to control; values are per cent of control
[20] = target: Death-associated protein kinase 3 (Homo sapiens) (UniProt O43293); assay: Inhibition of DAPK3 (unknown origin) at 1 uM in presence of ATP relative to control; values are per cent of control
[21] = target: Serine/threonine-protein kinase MARK1 (Homo sapiens) (UniProt Q9P0L2); assay: Inhibition of MARK1 (unknown origin) at 1 uM in presence of ATP relative to control; values are per cent of control
[22] = target: Serine/threonine-protein kinase MARK2 (Homo sapiens) (UniProt Q7KZI7); assay: Inhibition of MARK2 (unknown origin) at 1 uM in presence of ATP relative to control; values are per cent of control
[23] = target: Serine/threonine-protein kinase pim-1 (Homo sapiens) (UniProt P11309); assay: Inhibition of Pim-1 (unknown origin) at 1 uM in presence of ATP relative to control; values are per cent of control
[24] = target: Ephrin type-B receptor 2 (Homo sapiens) (UniProt P29323); assay: Inhibition of EphB2 (unknown origin) at 1 uM in presence of ATP relative to control; values are per cent of control
[25] = target: Ephrin type-B receptor 3 (Homo sapiens) (UniProt P54753); assay: Inhibition of EphB3 (unknown origin) at 1 uM in presence of ATP relative to control; values are per cent of control
[26] = target: Mitogen-activated protein kinase 11 (Homo sapiens) (UniProt Q15759); assay: Inhibition of p38beta (unknown origin) at 1 uM in presence of ATP relative to control; values are per cent of control
[27] = target: Cyclin-dependent kinase 5/CDK5 activator 1 (Homo sapiens) (UniProt Q00535+Q15078); assay: Inhibition of CDK5/p25 (unknown origin) at 1 uM in presence of ATP relative to control; values are per cent of control
[28] = target: Casein kinase II subunit alpha' (Homo sapiens) (UniProt P19784); assay: Inhibition of CK2alpha2 (unknown origin) at 1 uM in presence of ATP relative to control; values are per cent of control

Tyrosine-protein kinase Lck (Homo sapiens), sequence (P06239 2-509 limits assumed): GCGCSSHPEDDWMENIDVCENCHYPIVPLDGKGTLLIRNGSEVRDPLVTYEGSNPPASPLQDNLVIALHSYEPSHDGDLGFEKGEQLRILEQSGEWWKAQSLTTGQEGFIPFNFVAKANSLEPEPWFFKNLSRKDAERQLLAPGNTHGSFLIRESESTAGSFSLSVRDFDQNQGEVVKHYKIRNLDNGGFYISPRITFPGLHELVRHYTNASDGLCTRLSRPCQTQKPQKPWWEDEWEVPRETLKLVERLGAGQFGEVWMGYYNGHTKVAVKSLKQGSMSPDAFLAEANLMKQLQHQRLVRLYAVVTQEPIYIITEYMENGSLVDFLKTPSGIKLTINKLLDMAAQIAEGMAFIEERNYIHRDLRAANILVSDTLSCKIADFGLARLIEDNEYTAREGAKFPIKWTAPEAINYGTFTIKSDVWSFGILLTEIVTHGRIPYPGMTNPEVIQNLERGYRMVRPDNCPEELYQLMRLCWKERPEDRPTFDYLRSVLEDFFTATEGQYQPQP
Ephrin type-B receptor 2 (Homo sapiens), sequence (P29323 whole entry): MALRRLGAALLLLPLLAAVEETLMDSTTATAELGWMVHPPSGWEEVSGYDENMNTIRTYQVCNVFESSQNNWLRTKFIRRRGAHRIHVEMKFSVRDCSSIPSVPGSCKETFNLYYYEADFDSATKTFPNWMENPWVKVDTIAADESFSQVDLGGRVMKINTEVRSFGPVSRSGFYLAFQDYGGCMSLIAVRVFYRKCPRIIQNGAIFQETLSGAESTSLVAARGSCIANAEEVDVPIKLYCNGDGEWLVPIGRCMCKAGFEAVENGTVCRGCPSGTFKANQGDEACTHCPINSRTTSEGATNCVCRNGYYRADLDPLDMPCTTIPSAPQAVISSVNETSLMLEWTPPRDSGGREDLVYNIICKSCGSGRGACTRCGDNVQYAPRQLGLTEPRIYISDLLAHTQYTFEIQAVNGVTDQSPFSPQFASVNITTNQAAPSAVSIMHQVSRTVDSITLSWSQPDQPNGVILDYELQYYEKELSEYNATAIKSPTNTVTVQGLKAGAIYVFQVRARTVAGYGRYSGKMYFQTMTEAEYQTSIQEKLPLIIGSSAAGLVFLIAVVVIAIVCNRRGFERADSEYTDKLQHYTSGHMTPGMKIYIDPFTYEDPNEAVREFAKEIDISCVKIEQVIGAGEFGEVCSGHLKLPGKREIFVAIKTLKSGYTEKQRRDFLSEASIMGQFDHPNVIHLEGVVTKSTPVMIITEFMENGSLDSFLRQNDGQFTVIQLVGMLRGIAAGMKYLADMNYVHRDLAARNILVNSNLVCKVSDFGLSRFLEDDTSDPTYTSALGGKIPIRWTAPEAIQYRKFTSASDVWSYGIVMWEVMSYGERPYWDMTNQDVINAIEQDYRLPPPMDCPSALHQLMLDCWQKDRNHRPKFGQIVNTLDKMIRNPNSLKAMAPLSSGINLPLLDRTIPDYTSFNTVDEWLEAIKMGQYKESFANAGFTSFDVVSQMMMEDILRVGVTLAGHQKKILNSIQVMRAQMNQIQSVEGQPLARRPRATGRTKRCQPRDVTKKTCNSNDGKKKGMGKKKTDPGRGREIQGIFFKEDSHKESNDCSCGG
G protein-coupled receptor kinase 5 (Homo sapiens), sequence (P34947 whole entry, looked up): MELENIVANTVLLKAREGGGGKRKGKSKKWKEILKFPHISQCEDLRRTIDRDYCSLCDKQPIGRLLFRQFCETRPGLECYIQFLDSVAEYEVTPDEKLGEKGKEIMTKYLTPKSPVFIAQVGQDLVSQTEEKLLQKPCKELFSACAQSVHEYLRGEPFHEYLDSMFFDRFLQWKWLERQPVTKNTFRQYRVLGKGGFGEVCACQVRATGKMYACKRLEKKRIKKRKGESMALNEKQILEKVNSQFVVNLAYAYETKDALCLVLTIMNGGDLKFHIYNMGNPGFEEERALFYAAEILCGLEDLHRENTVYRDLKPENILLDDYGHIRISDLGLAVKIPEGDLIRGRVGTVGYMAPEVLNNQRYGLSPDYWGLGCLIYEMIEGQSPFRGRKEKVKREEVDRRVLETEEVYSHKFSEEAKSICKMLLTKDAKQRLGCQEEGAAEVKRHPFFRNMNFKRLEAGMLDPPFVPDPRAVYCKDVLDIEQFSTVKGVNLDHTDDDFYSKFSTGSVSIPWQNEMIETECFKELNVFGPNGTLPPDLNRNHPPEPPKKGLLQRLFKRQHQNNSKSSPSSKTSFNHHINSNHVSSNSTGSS
Mitogen-activated protein kinase 1 (Homo sapiens), sequence (P28482 whole entry): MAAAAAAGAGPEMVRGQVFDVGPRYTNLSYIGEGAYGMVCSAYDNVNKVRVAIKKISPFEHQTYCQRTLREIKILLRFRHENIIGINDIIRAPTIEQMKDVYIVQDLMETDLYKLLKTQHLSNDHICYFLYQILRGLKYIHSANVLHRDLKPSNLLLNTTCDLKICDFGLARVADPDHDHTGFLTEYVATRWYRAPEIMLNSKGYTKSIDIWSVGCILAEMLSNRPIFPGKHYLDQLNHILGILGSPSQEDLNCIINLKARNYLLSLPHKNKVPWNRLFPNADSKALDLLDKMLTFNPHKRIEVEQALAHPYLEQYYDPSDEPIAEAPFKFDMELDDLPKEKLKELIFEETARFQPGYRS
Mitogen-activated protein kinase 11 (Homo sapiens), sequence (Q15759 whole entry): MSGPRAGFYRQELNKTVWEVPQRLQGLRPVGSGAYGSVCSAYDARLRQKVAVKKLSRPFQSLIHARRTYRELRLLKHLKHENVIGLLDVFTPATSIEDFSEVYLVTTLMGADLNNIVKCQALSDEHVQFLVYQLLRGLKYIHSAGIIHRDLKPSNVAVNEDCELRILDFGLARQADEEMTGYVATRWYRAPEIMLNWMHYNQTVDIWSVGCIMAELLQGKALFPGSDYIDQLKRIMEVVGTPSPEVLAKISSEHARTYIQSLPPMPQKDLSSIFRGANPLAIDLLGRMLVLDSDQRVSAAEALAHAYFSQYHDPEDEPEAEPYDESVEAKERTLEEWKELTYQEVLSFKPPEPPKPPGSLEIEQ
Tyrosine-protein kinase Blk (Homo sapiens), sequence (P51451 2-505 limits assumed): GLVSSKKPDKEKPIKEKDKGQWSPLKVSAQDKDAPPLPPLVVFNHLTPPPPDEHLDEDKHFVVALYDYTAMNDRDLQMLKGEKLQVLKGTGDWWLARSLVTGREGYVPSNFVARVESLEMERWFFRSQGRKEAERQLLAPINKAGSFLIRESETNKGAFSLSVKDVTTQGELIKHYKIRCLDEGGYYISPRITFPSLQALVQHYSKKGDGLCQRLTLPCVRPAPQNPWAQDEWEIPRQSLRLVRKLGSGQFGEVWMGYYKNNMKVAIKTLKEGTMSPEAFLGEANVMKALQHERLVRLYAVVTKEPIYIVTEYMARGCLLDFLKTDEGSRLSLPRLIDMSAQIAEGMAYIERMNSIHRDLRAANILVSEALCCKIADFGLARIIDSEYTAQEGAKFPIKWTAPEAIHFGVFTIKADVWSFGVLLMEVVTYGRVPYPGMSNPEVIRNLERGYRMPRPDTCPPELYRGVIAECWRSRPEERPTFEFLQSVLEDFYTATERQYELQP
Tyrosine-protein kinase TXK (Homo sapiens), sequence (P42681 whole entry): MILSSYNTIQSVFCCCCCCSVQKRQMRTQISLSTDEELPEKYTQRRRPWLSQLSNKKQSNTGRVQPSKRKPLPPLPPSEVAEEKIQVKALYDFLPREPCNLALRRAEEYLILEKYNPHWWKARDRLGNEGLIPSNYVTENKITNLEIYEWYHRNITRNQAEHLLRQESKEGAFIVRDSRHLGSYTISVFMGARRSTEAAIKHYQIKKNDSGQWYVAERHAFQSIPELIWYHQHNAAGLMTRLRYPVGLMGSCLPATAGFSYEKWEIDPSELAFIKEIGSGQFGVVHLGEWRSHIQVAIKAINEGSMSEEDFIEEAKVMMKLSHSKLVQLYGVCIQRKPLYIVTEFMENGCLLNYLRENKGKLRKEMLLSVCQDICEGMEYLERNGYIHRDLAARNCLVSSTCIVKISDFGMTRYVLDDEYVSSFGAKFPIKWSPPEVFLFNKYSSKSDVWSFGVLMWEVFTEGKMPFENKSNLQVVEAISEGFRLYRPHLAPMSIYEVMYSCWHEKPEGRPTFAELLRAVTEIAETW
Serine/threonine-protein kinase MARK1 (Homo sapiens), sequence (Q9P0L2 whole entry, looked up): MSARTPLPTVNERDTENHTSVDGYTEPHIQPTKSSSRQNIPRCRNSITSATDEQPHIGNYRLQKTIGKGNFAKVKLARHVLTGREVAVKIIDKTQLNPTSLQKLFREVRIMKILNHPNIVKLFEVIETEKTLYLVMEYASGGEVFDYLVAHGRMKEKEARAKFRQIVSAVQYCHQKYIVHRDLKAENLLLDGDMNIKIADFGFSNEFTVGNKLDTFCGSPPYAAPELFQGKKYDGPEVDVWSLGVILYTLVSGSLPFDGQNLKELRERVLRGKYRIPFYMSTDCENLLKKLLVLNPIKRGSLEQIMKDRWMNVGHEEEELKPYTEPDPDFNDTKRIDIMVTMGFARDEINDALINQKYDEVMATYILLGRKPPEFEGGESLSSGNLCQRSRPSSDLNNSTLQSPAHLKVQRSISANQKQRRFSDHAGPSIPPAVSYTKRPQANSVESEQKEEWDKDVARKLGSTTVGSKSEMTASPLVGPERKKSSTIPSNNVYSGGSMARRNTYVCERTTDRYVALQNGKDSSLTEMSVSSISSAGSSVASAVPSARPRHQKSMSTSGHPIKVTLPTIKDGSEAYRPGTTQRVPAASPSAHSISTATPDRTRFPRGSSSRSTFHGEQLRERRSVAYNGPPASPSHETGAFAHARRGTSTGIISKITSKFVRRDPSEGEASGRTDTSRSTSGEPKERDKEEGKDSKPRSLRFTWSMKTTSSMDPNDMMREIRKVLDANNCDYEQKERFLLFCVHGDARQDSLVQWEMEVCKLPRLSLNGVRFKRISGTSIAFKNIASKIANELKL
Serine/threonine-protein kinase pim-1 (Homo sapiens), sequence (P11309 whole entry, looked up): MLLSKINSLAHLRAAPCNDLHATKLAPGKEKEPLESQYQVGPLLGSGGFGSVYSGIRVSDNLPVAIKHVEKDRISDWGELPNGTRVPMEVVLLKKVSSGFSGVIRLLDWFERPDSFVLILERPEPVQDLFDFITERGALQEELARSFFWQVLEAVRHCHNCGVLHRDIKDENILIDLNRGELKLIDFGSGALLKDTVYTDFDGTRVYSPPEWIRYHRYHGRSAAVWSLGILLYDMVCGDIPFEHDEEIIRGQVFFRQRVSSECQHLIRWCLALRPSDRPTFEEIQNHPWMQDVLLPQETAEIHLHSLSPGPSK

C[C@@H]1CCc2ncc(F)cc2[C@H]2CCCN2c2ccn3ncc(c3n2)C(=O)N1 [SELITRECTINIB]
bioavailability [1]: 24% | bioavailability [2]: 42% | inhibition [3]: inactive | inhibition [4]: inactive | inhibition [5]: inactive | inhibition [6]: inactive | inhibition [7]: inactive | inhibition [8]: 14% | concentration at 538 h [9]: 14.7 ng/mL | residual activity [10]: 108% | residual activity [11]: 92.5% | residual activity [12]: 120% | residual activity [13]: 110% | residual activity [14]: 96.5% | residual activity [15]: 111% | residual activity [16]: 105% | residual activity [17]: 115% | residual activity [18]: 125% | residual activity [19]: 89.5% | residual activity [20]: 120% | residual activity [21]: 94% | residual activity [22]: 107% | residual activity [23]: 122% | residual activity [24]: 81% | residual activity [25]: 101% | residual activity [26]: 123% | residual activity [27]: 98.5% | residual activity [28]: 99%
